Entries after “also recorded” stand apart in the source; their conditions may differ. Residues, ends and D or L forms follow the SMILES beside them. *: point of attachment. DNP = 2,4-dinitrophenyl quenching group; X1 = CS(=O)(=O)/C=C/[C@H](CC(=O)O)N*; MCA = fluorogenic coumarin group
How the values were obtained:
[1] = target: T1, Taspase1 (Homo sapiens, UniProt Q9H6P5); experiment: FRET-based Taspase1 proteolytic reporter (FRPR) assay; type: biochemical; settings: for EC50: Maybridge library screen, dose-response
T1 sequence (Q9H6P5 1-233 limits assumed): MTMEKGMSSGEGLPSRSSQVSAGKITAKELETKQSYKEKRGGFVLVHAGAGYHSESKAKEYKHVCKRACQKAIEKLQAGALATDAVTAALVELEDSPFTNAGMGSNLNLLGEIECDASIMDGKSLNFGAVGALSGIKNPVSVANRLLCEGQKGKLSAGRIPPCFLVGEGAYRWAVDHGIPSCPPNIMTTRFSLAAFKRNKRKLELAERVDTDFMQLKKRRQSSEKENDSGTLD

[2] = target: T2, recombinant Taspase1 (rTaspase1) (Homo sapiens, UniProt Q9H6P5); experiment: Taspase1-MLL in vitro cleavage assay (IVTT 35S methionine labeled p75MLL reporter, SDS-PAGE, autoradiography); type: biochemical; settings: for IC50: rTaspase1 pretreated 30 minutes at room temperature, then p75MLL reporter 30 minutes at 30° C., read-out: IC50 of Taspase1 inhibition (p75MLL cleavage); for Inhibition of Taspase1-mediated p75MLL cleavage (in words): indicated concentrations, 30 minutes pretreatment; for Effect of increasing pretreatment time on Taspase1 inhibition: 5 μM, pre-incubation for increasing periods of time; for Inhibition of Taspase1-mediated p75MLL cleavage at 1 mM: 1 mM (up to 1 mM)
T2 sequence (Q9H6P5 1-233 limits assumed): T1 sequence (Q9H6P5 1-233 limits assumed)

[3] = target: Recombinant Caspase8 (rCaspase8) (Homo sapiens, UniProt Q14790); experiment: Caspase8-BID in vitro cleavage assay (IVTT 35S methionine labeled p22Bid reporter); type: biochemical; settings: 1 mM, tertiary screen
[4] = test system: SV40-transformed mouse embryonic fibroblasts (MEFs); experiment: MTT assay of SV40-transformed MEFs, wild-type versus Taspase1-/-; type: cell-based; settings: 2 days, relative cell number
[5] = target: autotoxin (Homo sapiens, UniProt Q13822); settings: cited from earlier work
[6] = test system: NCI60 cell lines; settings: NCI DTP database; cited from earlier work

Sequence of Recombinant Caspase8 (rCaspase8) (Q14790 217-374 limits assumed, species assumed): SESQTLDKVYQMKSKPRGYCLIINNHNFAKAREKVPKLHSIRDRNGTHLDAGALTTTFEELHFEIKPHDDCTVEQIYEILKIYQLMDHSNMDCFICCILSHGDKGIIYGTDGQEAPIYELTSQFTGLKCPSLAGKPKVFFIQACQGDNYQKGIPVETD

## CC(C)(C)c1cc(C(=O)NNC(=S)Nc2ccccc2)n(Cc2ccc(Cl)cc2Cl)n1 [SPB 08132]
[1]
  EC50: 5.9 µM

## Cc1ccc(NC(=S)NNC(=O)Cn2nnc(-c3cccc(Cl)c3Cl)n2)cc1Cl [RJF 02020]
[1]
  EC50: 3.9 µM

## CC[C@H](C)[C@H](NC(C)=O)C(=O)N[C@@H](CO)C(=O)N[C@@H](CCC(N)=O)C(=O)N[C@@H](CC(C)C)C(=O)N[C@H](/C=C/S(C)(=O)=O)CC(=O)O [ISQLD-vinyl sulfone] (Ac-ISQL-X1; N-terminus and C-terminus assumed)
[2]
  IC50: 29.4 µM

## CC[C@H](C)[C@H](NC(=O)[C@H](CCCCN)NC(C)=O)C(=O)N[C@@H](CO)C(=O)N[C@@H](CCC(N)=O)C(=O)N[C@@H](CC(C)C)C(=O)N[C@H](C=O)CC(=O)O [ISQLD-aldehyde] (Ac-KISQLD-aldehyde)
[2]
  Inhibition of Taspase1-mediated p75MLL cleavage (in words): minimal activity

## O=[As](O)(O)c1ccc(Cc2ccc([As](=O)(O)O)cc2)cc1 [NSC48300, [4-[(4-arsonophenyl)methyl]phenyl]arsonic acid]
[2]
  Effect of increasing pretreatment time on Taspase1 inhibition: did not enhance the inhibition
  Inhibition of Taspase1-mediated p75MLL cleavage at 1 mM: inhibited Taspase1
  IC50: ~7.5 µM
[2]; listed as TASPIN-NSC48300
  Effect of increasing pretreatment time on Taspase1 inhibition: did not exhibit enhanced inhibition
[2]; 10 μM
  Inhibition of Taspase1-mediated p75MLL cleavage at 10 μM: completely inhibited
[3]
  Inhibition of Caspase8-mediated p22Bid cleavage: only targets Taspase1; also recorded: not Caspase8
[1]; 100 nM rTaspase1, varying concentrations of FRPR, read-out: KI of Taspase1 inhibition
  Ki: 4.22 ± 0.46 µM
[1]; varying concentrations of FRPR and inhibitor
  Mode of Taspase1 inhibition: non-competitive inhibition
[4]
  Susceptibility of wild-type versus Taspase1-/- SV40-transformed MEFs: more susceptible
[5]
  Inhibition of autotoxin: inhibit autotoxin
[6]
  Growth inhibition in the NCI60 screen: distinct pattern of growth inhibition

## O=C(CO/N=C/c1ccc(Cl)cc1Cl)NNCCC(=S)Nc1cc(Cl)ccc1Cl [CD 06082]
[1]
  EC50: 3.3 µM

## CC(C)C[C@H](NC(=O)[C@H](Cc1ccccc1)NC(=O)c1cnccn1)B(O)O [bortezomib]
[2]
  Inhibition of Taspase1-mediated p75MLL cleavage (in words): no activity

## S=C(NNC(=S)NC1CC2C=CC1C2)Nc1ccc(Br)c(Cl)c1 (centres unmarked) [CD 02506]
[1]
  EC50: 1.5 µM

## Cc1ccc(S(=O)(=O)NC(=O)Nc2nc(-c3ccc(C)c(Cl)c3)c(C)s2)cc1 [HTS 06900]
[1]
  EC50: 4 µM

## arsenic acid
[2]
  Inhibition of Taspase1-mediated p75MLL cleavage at 1 mM: no inhibition

## MCA-KISQLDGVDD-DNP ({MCA}-KISQLDGVDD-{DNP}) [FRPR]
[1]; rTaspase1 at room temperature, read-out: apparent KM of the reporter substrate
  Km: 9.06 ± 2.8 µM

## Cc1ccc(-c2nc(NS(=O)(=O)c3cccc4nonc34)sc2C)cc1Cl [HTS 01888]
[1]
  EC50: 2.2 µM

## O=C(NNC(=S)Nc1cccc(C(F)(F)F)c1)c1sc2ccccc2c1Cl [BTB 00807]
[1]
  EC50: 9.9 µM

Source: US8501811B2, “TASPASE1 inhibitors and their uses” (Washington University, priority 2010, dated 2013)
